From the Kinase Knowledgebase extract (Sharma et al. 2016) come the findings set out here.

In this test the target is MAPK14 (human) (UniProt Q16539). Kind of test: Inhibition of MAPK14 Kinase Activity.

The structures appear in SMILES notation.

In general, IC50 refers to the concentration that inhibits the measured activity by half. Higher therefore signals weaker potency in that assay.

Sequence of MAPK14 (human) (Q16539 whole entry, looked up): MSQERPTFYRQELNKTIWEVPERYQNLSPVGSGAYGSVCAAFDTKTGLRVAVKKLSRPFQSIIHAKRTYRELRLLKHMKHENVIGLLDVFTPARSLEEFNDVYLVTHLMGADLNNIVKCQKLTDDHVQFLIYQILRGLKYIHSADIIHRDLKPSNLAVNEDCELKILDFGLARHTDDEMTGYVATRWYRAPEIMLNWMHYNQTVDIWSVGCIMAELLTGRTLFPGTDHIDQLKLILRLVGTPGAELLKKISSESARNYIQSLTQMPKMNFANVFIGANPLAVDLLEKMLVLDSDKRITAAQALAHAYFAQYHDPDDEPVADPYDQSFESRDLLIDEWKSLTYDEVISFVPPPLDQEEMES

Consider `Cc1cc(Nc2c(C(=O)N3CC[C@@H](N(C)C)C3)sc3c2ccc(=O)n3-c2ccccc2)ccc1F`, for which the IC50 was below 1000 nM.

Compound `O=C(c1sc2c(ccc(=O)n2-c2ccccc2)c1Nc1cccc(Cl)c1)N1CCC[C@@H]1CO` yielded an IC50 below 1000 nM.

As for `Cc1cccc(Nc2c(C(=O)N3CC[C@H](O)C3)sc3c2ccc(=O)n3-c2ccccc2Cl)c1`, the IC50 was below 1000 nM.

Compound `Cc1ccc(-n2c(=O)ccc3c(Nc4ccc(F)c(C)c4)c(C(=O)N4CC[C@H](O)C4)sc32)cc1` registered an IC50 below 1000 nM.

`Cc1cc(Nc2c(C(=O)N3CC[C@H](N(C)C)C3)sc3c2ccc(=O)n3-c2ccccc2)ccc1F` came in with an IC50 below 1000 nM.

Regarding `Cc1ccc(-n2c(=O)ccc3c(Nc4ccc(F)c(C)c4)c(C(=O)N4CCC[C@@H]4CO)sc32)cc1`, the IC50 was below 1000 nM.

As for `O=C(c1sc2c(ccc(=O)n2-c2ccccc2)c1Nc1ccc(F)cc1F)N1C[C@@H](O)[C@@H](O)C1`, the concentration for half-maximal inhibition (IC50) is below 1000 nM.

`CN(C)C1CCN(C(=O)c2sc3c(ccc(=O)n3-c3ccccc3)c2Nc2ccc(F)cc2F)CC1` yielded an IC50 below 1000 nM.

`NC[C@@H]1CCCN1C(=O)c1sc2c(ccc(=O)n2-c2ccccc2)c1Nc1ccc(F)cc1F` showed an IC50 below 1000 nM.

For the compound `O=C(c1sc2c(ccc(=O)n2-c2ccccc2)c1Nc1ccc(F)cc1F)N1C[C@@H](O)[C@H](O)C1`, the 50% inhibitory concentration (IC50) was below 1000 nM.

Compound `Cc1cccc(Nc2c(C(=O)N3CCC[C@@H]3CO)sc3c2ccc(=O)n3-c2cccc(C)c2)c1` had an IC50 below 1000 nM.

`Cc1cc(Nc2c(C(=O)N3CCC[C@@H]3CO)sc3c2ccc(=O)n3-c2ccccc2Cl)ccc1F` gave an IC50 below 1000 nM.

Compound `O=C(c1sc2c(ccc(=O)n2-c2ccccc2Cl)c1Nc1ccc(F)cc1F)N1CCC[C@@H]1CO` showed an IC50 below 1000 nM.

`NC1CCN(C(=O)c2sc3c(ccc(=O)n3-c3ccccc3)c2Nc2ccc(F)cc2F)C1` (configuration not stated) registered an IC50 below 1000 nM.

As to `O=C(c1sc2c(ccc(=O)n2-c2ccc(F)cc2)c1Nc1ccc(F)cc1F)N1CCC[C@@H]1CO`, the IC50 is below 1000 nM.

Compound `O=C(c1sc2c(ccc(=O)n2-c2ccc(F)cc2)c1Nc1ccc(F)cc1F)N1CC[C@H](O)C1` had an IC50 below 1000 nM.

Take `O=C(c1sc2c(ccc(=O)n2-c2ccccc2)c1Nc1ccccc1)N1CCC[C@@H]1CO`: the IC50 is below 1000 nM.

`O=C(c1sc2c(ccc(=O)n2-c2ccccc2)c1Nc1ccc(F)cc1F)N1CC(O)C1`: the IC50 is below 1000 nM.

Consider `O=C(c1sc2c(ccc(=O)n2-c2ccccc2)c1Nc1ccc(F)cc1F)N1CC[C@@H](O)C1`, for which the IC50 is below 1000 nM.

`NC1CCN(C(=O)c2sc3c(ccc(=O)n3-c3ccccc3)c2Nc2ccc(F)cc2F)CC1` had an IC50 below 1000 nM.

`Cc1cc(Nc2c(C(=O)N3CCC[C@@H]3CO)sc3c2ccc(=O)n3-c2ccc(Cl)cc2)ccc1F` yielded an IC50 below 1000 nM.

With `N[C@H]1CCN(C(=O)c2sc3c(ccc(=O)n3-c3ccccc3)c2Nc2ccc(F)cc2F)C1`, the IC50 was below 1000 nM.

The compound `NC1CN(C(=O)c2sc3c(ccc(=O)n3-c3ccccc3)c2Nc2ccc(F)cc2F)C1` came in with an IC50 below 1000 nM.

In turn, `Cc1cc(Nc2c(C(=O)N3CC(O)C3)sc3c2ccc(=O)n3-c2ccccc2)ccc1F` had an IC50 below 1000 nM.

`COC[C@@H]1CCCN1C(=O)c1sc2c(ccc(=O)n2-c2ccccc2)c1Nc1ccccc1` returned an IC50 below 1000 nM.

Compound `O=C(c1sc2c(ccc(=O)n2-c2ccc(F)cc2)c1Nc1ccc(F)cc1F)N1CC[C@@H](O)C1` came in with an IC50 below 1000 nM.

For `Cc1ccc(-n2c(=O)ccc3c(Nc4ccc(F)cc4F)c(C(=O)N4CCC[C@@H]4CO)sc32)cc1`, the IC50 is below 1000 nM.

The compound `N#Cc1ccccc1Nc1c(C(=O)N2CCC[C@@H]2CO)sc2c1ccc(=O)n2-c1ccccc1` yielded an IC50 below 1000 nM.

In turn, `CC(C)(O)[C@H]1CCCN1C(=O)c1sc2c(ccc(=O)n2-c2ccccc2)c1Nc1ccc(F)cc1F` yielded an IC50 below 1000 nM.

As for `O=C(c1sc2c(ccc(=O)n2-c2ccccc2)c1Nc1ccccc1Cl)N1CCC[C@H]1CO`, the IC50 was below 1000 nM.

For the compound `CN(C)[C@@H]1CCN(C(=O)c2sc3c(ccc(=O)n3-c3ccccc3)c2Nc2ccc(F)cc2F)C1`, the IC50 is below 1000 nM.

For `Cc1cc(Nc2c(C(=O)N3CC[C@H](O)C3)sc3c2ccc(=O)n3-c2ccccc2Cl)ccc1F`, the IC50 was below 1000 nM.

Compound `Cc1cc(Nc2c(C(=O)N3CC[C@H](N)C3)sc3c2ccc(=O)n3-c2ccccc2)ccc1F` returned an IC50 below 1000 nM.

Regarding `O=C(c1sc2c(ccc(=O)n2CC2CC2)c1Nc1ccccc1)N1CCC[C@@H]1CO`, the IC50 was below 1000 nM.

As to `Cc1ccc(-n2c(=O)ccc3c(Nc4ccc(F)c(C)c4)c(C(=O)N4CC[C@@H](O)C4)sc32)cc1`, the IC50 was below 1000 nM.

`Cc1cc(Nc2c(C(=O)N3CC[C@@H](O)C3)sc3c2ccc(=O)n3-c2ccccc2)ccc1F` had an IC50 below 1000 nM.

For the compound `O=C(c1sc2c(ccc(=O)n2-c2ccccc2)c1Nc1ccc(F)cc1F)N1C[C@H](O)[C@@H](O)C1`, the IC50 is below 1000 nM.

With `N#Cc1ccccc1Nc1c(C(=O)N2CC[C@H](O)C2)sc2c1ccc(=O)n2-c1ccccc1`, the IC50 is below 1000 nM.

In turn, `O=c1ccc2c(Nc3ccc(F)cc3F)c(S(=O)(=O)N3CCC[C@@H]3CO)sc2n1-c1ccccc1` displayed an IC50 below 1000 nM.

Turning to `Cc1cc(Nc2c(C(=O)N3CCC[C@@H]3CO)sc3c2ccc(=O)n3-c2ccccc2)ccc1F`, the IC50 was below 1000 nM.

On to `Cc1ccc(-n2c(=O)ccc3c(Nc4ccc(F)cc4F)c(C(=O)N4CC[C@H](O)C4)sc32)cc1`, for which the IC50 was below 1000 nM.

`Cc1cc(Nc2c(C(=O)N3CC[C@H](O)C3)sc3c2ccc(=O)n3-c2ccc(F)cc2)ccc1F` gave an IC50 below 1000 nM.

`Cc1ccc(-n2c(=O)ccc3c(Nc4cccc(C)c4)c(C(=O)N4CCC[C@@H]4CO)sc32)cc1`: the concentration for half-maximal inhibition (IC50) was below 1000 nM.

As to `O=C(c1sc2c(ccc(=O)n2-c2ccccc2)c1Nc1ccc(F)cc1F)N1CCC[C@@H]1CO`, the IC50 was below 1000 nM.

For the compound `CC(C)(O)[C@@H]1CCCN1C(=O)c1sc2c(ccc(=O)n2-c2ccccc2)c1Nc1ccc(F)cc1F`, the IC50 was below 1000 nM.

Consider `CN(C)C1CN(C(=O)c2sc3c(ccc(=O)n3-c3ccccc3)c2Nc2ccc(F)cc2F)C1`, for which the IC50 was below 1000 nM.

In the case of `N#Cc1ccccc1Nc1c(C(=O)N2CCC[C@H]2CO)sc2c1ccc(=O)n2-c1ccccc1`, the IC50 is below 1000 nM.

On to `O=C(c1sc2c(ccc(=O)n2-c2ccccc2Cl)c1Nc1ccc(F)cc1F)N1CC[C@@H](O)C1`, for which the IC50 is below 1000 nM.

`NC[C@H]1CCCN1C(=O)c1sc2c(ccc(=O)n2-c2ccccc2)c1Nc1ccc(F)cc1F` showed an IC50 below 1000 nM.

With `O=C(c1sc2c(ccc(=O)n2-c2ccccc2)c1Nc1ccc(F)cc1F)N1CCCC(O)C1` (configuration not stated), the IC50 was below 1000 nM.

`O=C(c1sc2c(ccc(=O)n2-c2ccccc2Cl)c1Nc1ccc(F)cc1F)N1CC[C@H](O)C1` displayed an IC50 below 1000 nM.

In turn, `O=C(c1sc2c(ccc(=O)n2-c2ccccc2)c1Nc1ccc(F)cc1F)N1CC[C@H](O)C1` gave an IC50 below 1000 nM.

The compound `O=C(c1sc2c(ccc(=O)n2-c2ccccc2)c1Nc1ccccc1)N1CCC[C@H]1CO` displayed an IC50 below 1000 nM.

With `O=C(c1sc2c(ccc(=O)n2-c2ccccc2)c1Nc1ccccc1Cl)N1CCC[C@@H]1CO`, the IC50 was below 1000 nM.

On to `Cc1cccc(Nc2c(C(=O)N3CCC[C@@H]3CO)sc3c2ccc(=O)n3-c2ccccc2)c1`, for which the IC50 is below 1000 nM.

On to `Cc1cc(Nc2c(C(=O)N3CCC[C@H]3CO)sc3c2ccc(=O)n3-c2ccccc2)ccc1F`, for which the IC50 was below 1000 nM.

In turn, `Cc1cccc(-n2c(=O)ccc3c(Nc4ccc(F)c(C)c4)c(C(=O)N4CCC[C@@H]4CO)sc32)c1` came in with an IC50 below 1000 nM.

With `Cc1cc(Nc2c(C(=O)N3CC[C@@H](N)C3)sc3c2ccc(=O)n3-c2ccccc2)ccc1F`, the concentration for half-maximal inhibition (IC50) was below 1000 nM.

For the compound `Cc1cccc(-n2c(=O)ccc3c(Nc4ccc(F)c(C)c4)c(C(=O)N4CCC[C@H]4CO)sc32)c1`, the IC50 is below 1000 nM.

`O=C(c1sc2c(ccc(=O)n2-c2ccccc2)c1Nc1ccc(F)c(Cl)c1)N1CCC[C@H]1CO` displayed an IC50 below 1000 nM.

In turn, `COC[C@H]1CCCN1C(=O)c1sc2c(ccc(=O)n2-c2ccccc2)c1Nc1ccccc1` yielded an IC50 below 1000 nM.

In the case of `Cc1cc(Nc2c(C(=O)N3CC[C@H](O)C3)sc3c2ccc(=O)n3-c2ccccc2)ccc1F`, the IC50 was below 1000 nM.

Compound `O=C(c1sc2c(ccc(=O)n2-c2ccccc2)c1Nc1ccc(F)cc1F)N1CCC[C@H]1CO` yielded an IC50 below 1000 nM.

The compound `Cc1ccc(-n2c(=O)ccc3c(Nc4ccc(F)cc4F)c(C(=O)N4CC[C@@H](O)C4)sc32)cc1` showed an IC50 below 1000 nM.

The compound `Cc1cc(Nc2c(C(=O)N3CCC[C@@H]3CO)sc3c2ccc(=O)n3-c2ccc(F)cc2)ccc1F` had an IC50 below 1000 nM.

In the case of `N[C@@H]1CCN(C(=O)c2sc3c(ccc(=O)n3-c3ccccc3)c2Nc2ccc(F)cc2F)C1`, the IC50 was below 1000 nM.

With `N#Cc1cccc(Nc2c(C(=O)N3CCC[C@@H]3CO)sc3c2ccc(=O)n3-c2ccccc2)c1`, the IC50 is below 1000 nM.

The compound `O=C(c1sc2c(ccc(=O)n2-c2ccccc2)c1Nc1ccc(F)c(Cl)c1)N1CCC[C@@H]1CO` showed a 50% inhibitory concentration (IC50) below 1000 nM.

The compound `O=C(c1sc2c(ccc(=O)n2-c2ccccc2)c1Nc1ccc(F)cc1F)N1CCC(O)CC1` yielded an IC50 below 1000 nM.

`Cc1cc(Nc2c(C(=O)N3CCC[C@H]3CN)sc3c2ccc(=O)n3-c2ccccc2)ccc1F` returned an IC50 below 1000 nM.

In the case of `N#Cc1ccccc1Nc1c(C(=O)N2CC[C@@H](O)C2)sc2c1ccc(=O)n2-c1ccccc1`, the IC50 is below 1000 nM.

In the case of `CN(C)[C@H]1CCN(C(=O)c2sc3c(ccc(=O)n3-c3ccccc3)c2Nc2ccc(F)cc2F)C1`, the IC50 is below 1000 nM.
